Reference: article PMC8044163, “Vitamin D and lumisterol derivatives can act on liver X receptors (LXRs)” (Scientific Reports, 2021)

How the values were obtained:
[1] = target: T1, LBD of LXRβ (Homo sapiens, UniProt P55055); test: LanthaScreen TR-FRET LXRβ coactivator assay (LXR binding assay); format: biochemical; conditions: agonist; average values; read-out: LXRβ EC50
T1 construct: purchased Thermo Fisher Scientific
T1 sequence (P55055 222-460 limits assumed): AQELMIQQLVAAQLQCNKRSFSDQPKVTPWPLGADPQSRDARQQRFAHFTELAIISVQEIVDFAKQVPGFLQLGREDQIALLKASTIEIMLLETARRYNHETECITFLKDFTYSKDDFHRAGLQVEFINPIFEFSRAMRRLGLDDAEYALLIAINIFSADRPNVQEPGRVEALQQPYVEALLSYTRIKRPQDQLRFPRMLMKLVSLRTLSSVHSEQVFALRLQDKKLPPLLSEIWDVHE
Method: (§1) Binding assays of graded concentrations of vitamin D3 or lumisterol hydroxyderivatives to LXRα/β were performed using the LanthaScreen TR-FRET LXRα/β Coactivator kit (Thermo Fisher Scientific, Inc., Waltham, MA) following the manufacture’s protocol. Briefly, after addition of LXRα/β-LBD to the derivatives, a mixture of peptide (Fluorescein-TRAP220/DRIP-2 for LXRα or Fluorescein-D22 for LXRβ) and antibody (Tb-anti-GST) was added to the reaction followed by incubation in room temperature for 2 h. TR-FRET ratio was calculated by dividing the emission at 520 nm by the emission at 495 nm using Synergy neo2 (BioTek, Winooski, VT).

[2] = tested on: genes downstream of LXR; test: qPCR of genes downstream of LXR in murine dermal fibroblasts; format: cell-based, mouse; conditions: 10^–7 M, 24 h
Method: All animal studies followed guidelines outlined by the NIH Guide for the Care and Use of Laboratory Animals and protocols were approved by the Institutional Animal Care and Use Committee at the NIEHS or the UAB. The study was carried out in compliance with the ARRIVE guidelines (http://www.nc3rs.org.uk/page.asp?id=1357). Skin samples from newborn C57BL/6 mice were collected at the NIEHS. Dermal fibroblasts were isolated from the skin of newborn mice, 1–2 day old. Briefly, we followed the protocols described previously. The skin was washed in PBS, cut into smaller pieces and incubated in 2.4 U/ml of dispase II (Roche) overnight at 4 °C. The dermis was separated from the epidermis and incubated in 0.1% collagenase (Roche) at 4 °C overnight. Next day, it was cut into smaller pieces and incubated for 1 h in 0.25% Trypsin (CellGrow) at 37 °C. Single cell suspension was prepared by pipetting and draining through a cell strainer. After centrifugation, cell pellets were suspended in DMEM medium containing 10% charcoal-stripped fetal bovine serum (cFBS), mouse fibroblasts growth factor (FGF) and 1% antibiotic, and inoculated into tissue culture dishes (Midwest Scientific, TPP). Cells, in early passages, from different mice were pooled together to provide representative samples for experiments. Fibroblasts were cultured in Petri dishes (10 cm in diameter) in DMEM and 10% cFBS and triplicate semi-confluent cultures were treated as described.
RNA isolated from either fibroblasts, HaCaT cells or brain was submitted for cDNA synthesis (High Capacity cDNA Reverse Transcription Kit with RNase Inhibitor, Applied Biosystems) following the manufacturers’ protocols. RT-PCR was carried out using Cyber green, in triplicates; as previously described. Approximately, 750 ng of cDNA was used for PCR reactions. GAPDH and CIC-B were used as internal controls. Primer sequences are listed in Supplementary Table 27. Data were analyzed using GraphPad Prism statistical software one way ANOVA or t-test, where appropriate; *p < 0.05; **p < 0.01; ***p < 0.001.

[3] = target: T2, LBD of LXRα (Homo sapiens, UniProt Q13133); test: LanthaScreen TR-FRET LXRα coactivator assay (LXR binding assay); format: biochemical; conditions: average values; for IC50: inverse agonist; for EC50: agonist, read-out: LXRα EC50
T2 construct: after addition of LXRα/β-LBD to the derivatives; purchased Thermo Fisher Scientific
T2 sequence (Q13133 209-447 limits assumed): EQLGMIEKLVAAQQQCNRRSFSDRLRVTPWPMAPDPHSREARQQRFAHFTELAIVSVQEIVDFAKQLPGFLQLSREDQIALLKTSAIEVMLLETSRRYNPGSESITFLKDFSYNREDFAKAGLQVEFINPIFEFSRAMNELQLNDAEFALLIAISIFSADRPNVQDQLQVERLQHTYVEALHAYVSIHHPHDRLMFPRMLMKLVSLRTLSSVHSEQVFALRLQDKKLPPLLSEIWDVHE
Method: as §1

[4] = tested on: LXRα/β; test: Ligand induced translocation of LXRα/β to the nucleus, imaging flow cytometry in HaCaT; format: cell-based, human; conditions: 10^–7 M, 12 h
Method: HaCaT cells were plated in DMEM plus 5% cFBS either on a sterile glass cover slip placed in a well of a 6-well plates for immunofluorescence (IF) assays or TPP Petri dishes for image-stream flow cytometry, and treated with 10^–7 M D3- or L3-hydroxyderivatives or 0.1% ethanol (vehicle) as a negative control was added to each well, and the cells were incubated for 12 or 24 h at 37 °C with 5% CO2. For IF the cells were fixed in 4% paraformaldehyde for 15 min, incubated in 0.5% Triton X-100 in phosphate-buffered saline (PBS) for 5 min, and washed 3 times in PBS. After blocking with 2% bovine serum albumin (BSA) in PBS for 1 h at room temperature, the cells were treated with an anti-LXRα antibody (Novus Biologicals, LLC, Centennial, CO) at 1:200 in PBS supplemented with 2% BSA overnight in 4 °C. After washing the slides were incubated with a mouse anti-rabbit IgG-FITC (Santa Cruz Biotechnology, Inc, Dallas, TX) at 1:200 dilution for 1.5 h at 37 °C. After washing the slides were mounted using propidium iodide (PI) (Vector Labs, Burlingame, California) as a nuclear counterstain. The slides were examined using a KEYENCE America BZ-X710 Fluorescence Microscope (Itasca, IL). The images were subsequently analyzed using the JACoP plugin for colocalization analysis with ImageJ[74]. Five separate high-power field (40×) images were converted to grayscale and analyzed for each condition. Manders’ coefficient (M1), calculated using a preset threshold, was used to quantify the degree of colocalization between PI and LXRα with 0 representing no colocalization, and 1 representing perfect colocalization.
For Image Stream II (Amnis, Seattle, WA, USA) cytometer analyses, HaCaT cells were detached and processed as previously described. The cells were fixed with paraformaldehyde and permeabilized in methanol containing buffer[78],[79] and Hoechst stain (r37165, ThermoFisher) and rabbit antibodies to LXRα/β (sc 377260, AF 647, SantaCruz) or VDR (sc-13133, AF 488, SantaCruz) as described previously. Data were analyzed using IDEAS software (Amnis, Seattle, WA, USA).

Row | SMILES | EC50 [1] [µM] | Cyp7a1 expression [2] | IC50 [3] [nM] | EC50 [3] [nM] | Fas (fatty acid synthase) expression [2] | translocation of LXRα/β from the cytoplasm to the nucleus [4] | Abcg8 expression [2] | ApoE (apolipoprotein E) expression [2]
1 | C=C1/C(=C\C=C2/CCC[C@]3(C)[C@@H]([C@H](C)CCCC(C)(C)O)CC[C@@H]23)C[C@@H](O)C[C@@H]1O [1,25(OH)2D3, reference compound] | 14 | stimulated | 1100 | – | stimulated | increased translocation | – | –
2 | CC(C)CCC[C@](C)(O)[C@H]1CC[C@H]2[C@@H]3CC=C4C[C@@H](O)CC[C@]4(C)[C@H]3CC[C@@]21C [20(OH)C, 20-hydroxycholesterol, reference compound] | – | inhibited | – | – | – | – | inhibited | inhibited
3 | C=C1CCC(O)CC1=CC=C1CCCC2(C)C1CCC2C(C)(O)CC(O)CC(C)C (stereo not shown) [20,23(OH)2D3] | 26 | – | – | 1100 | – | – | induced | enhanced

The next lines start with results.

Row | EC50 [1] [µM] | Cyp7a1 expression [2] | IC50 [3] [nM] | EC50 [3] [nM] | SMILES | Fas (fatty acid synthase) expression [2] | translocation of LXRα/β from the cytoplasm to the nucleus [4] | Abcg8 expression [2] | ApoE (apolipoprotein E) expression [2]
4 | 1.6 | inhibited | 2100 | – | C=C1C(=CC=C2CCCC3(C)C2CCC3C(C)(O)CC(O)CC(C)C)CC(O)CC1O (stereo not shown) [1,20,23(OH)3D3] | stimulated | increased translocation | – | –
5 | 2.6 | stimulated | – | 15 | C=C1CC[C@H](O)C/C1=C/C=C1\CCC[C@@]2(C)[C@H]1CC[C@@H]2[C@@](C)(O)CCCC(C)C [20(OH)D3] | stimulated | increased translocation | – | –
